Laboratory results: patent publication US6441169B1, “Pyrimidin-2-oxy-4-one and pyrimidin-2-oxy-4-thione derivatives” (Syngenta Crop Protection, Inc., priority 1997, dated 2002)

Columns and labels:
[1] = test system: Puccinia graminis; format: in vivo; details: wheat plants; a) spray 0.02% active ingredient, infected 24 hours later; b) soil drench 0.006% a.i., infected after 48 hours; evaluation 12 days after infection
[2] = test system: Colletotrichum lagenarium; assay: B-2 Action against Colletotrichum lagenarium on cucumbers; format: in vivo; details: cucumber plants; spray concentration 0.002%; infected 2 days later; evaluation 8 days after infection
Experimental: Action Against Colletotrichum lagenarium on Cucumbers After a growth period of 2 weeks, cucumber plants are sprayed with an aqueous spray mixture (concentration 0.002%) prepared from a wettable powder formulation of the test compound and infected 2 days later with a spore suspension (1.5×10^5 spores/ml) of the fungus and incubated for 36 hours at 23° C. and high humidity. Incubation is then continued at normal humidity and c. 22° C. Evaluation of the fungal infestation is made 8 days after infection.

[3] = test system: Venturia inaegualis; assay: B-3 Residual-protective action against Venturia inaegualis on apples; format: in vivo; details: apple cuttings; spray 0.02% a.i.; infected 24 hours later; evaluation 12 days after infection
Experimental: Residual-protective Action Against Venturia inaegualis on Apples Apple cuttings with fresh shoots 10 to 20 cm long are sprayed to drip point with a spray mixture (0.02% a.i.) prepared from a wettable powder formulation of the test compound. The plants are infected 24 hours later with a conidia suspension of the fungus. The plants are then incubated for 5 days at 90 to 100% relative humidity and stood in a greenhouse for a further 10 days at 20 to 24° C. Evaluation of the fungal infestation is made 12 days after infection.

SMILES	activity against Puccinia graminis (fungal infestation) [1]	activity against Colletotrichum lagenarium (fungal infestation) [2]	activity against Venturia inaegualis (fungal infestation) [3]	melting point
CCCn1c(OCC2(C)CC2)nc2ccc(Br)cc2c1=O [Compound 1.7, 6-bromo-2-(1-methylcyclopropylmethoxy)-3-n-propyl-3Hquinazoline-4-one]	good to excellent activity	good to excellent activity	good activity	81 to 85 °C
CCCCn1c(OCC2(C)CC2)nc2ccc(Br)cc2c1=O [Compound 1.10, 6-bromo-2-(1-methylcyclopropylmethoxy)-3-n-buyl-3H-quinazoline-4-one]	good to excellent activity	good to excellent activity	good activity	–
CC1(COc2nc3ccc(Br)cc3c(=O)n2CC2CC2)CC1 [Compound 1.15]	good to excellent activity	good to excellent activity	good activity	–
CCCn1c(OCC2CC2C)nc2ccc(Br)cc2c1=O (centres unmarked) [Compound 1.22, 6-bromo-2-(2-methylcyclopropylmethoxy)-3-n-propyl-3H-quinazoline-4-one]	good to excellent activity	good to excellent activity	good activity	49 to 51 °C
CCCCn1c(OCC2CC2C)nc2ccc(Br)cc2c1=O (centres unmarked) [Compound 1.25, 6-bromo-2-(2-methylcyclopropylmethoxy)-3-n-buyl-3H-quinazoline-4-one]	good to excellent activity	good to excellent activity	good activity	–
CC1CC1COc1nc2ccc(Br)cc2c(=O)n1CC1CC1 (centres unmarked) [Compound 1.30]	good to excellent activity	good to excellent activity	good activity	–
CCCn1c(OCC2CC2(Cl)Cl)nc2ccc(Br)cc2c1=O (centres unmarked) [Compound 1.37]	good to excellent activity	good to excellent activity	good activity	–
CCCn1c(OCC2(C)CC2)nc2sc(Cl)cc2c1=O [Compound 3.6, 6-chloro-2-(1-methylcyclopropylmethoxy)-3-n-propyl-3H-thieno[2.3-d]pyrimidin-4-one]	good to excellent activity	good to excellent activity	good activity	–
CCCn1c(OCC2(C)CC2)nc2sc(Br)cc2c1=O [Compound 3.7, 6-bromo-2-(1-methylcyclopropylmethoxy)-3-n-propyl-3H-thieno[2.3-d]pyrimidin-4-one]	good to excellent activity	good to excellent activity	good activity	–
CCCn1c(OCC2CC2C)nc2sc(Cl)cc2c1=O (centres unmarked) [Compound 3.21, 6-chloro-2-(2-methylcyclopropylmethoxy)-3-n-propyl-3H-thieno[2.3-d]pyrimidin-4-one]	good to excellent activity	good to excellent activity	good activity	–
CCCn1c(OCC2CC2C)nc2sc(Br)cc2c1=O (centres unmarked) [Compound 3.22, 6-bromo-2-(2-methylcyclopropylmethoxy)-3-n-propyl-3H-thieno[2.3-d]pyrimidin-4-one]	good to excellent activity	good to excellent activity	good activity	–
CCCn1c(OCC2CC2(Cl)Cl)nc2sc(Cl)cc2c1=O (centres unmarked) [Compound 3.36, 6-chloro-2-(2,2-Dichlorocyclopropylmethoxy)-3-n-propyl-3H-thieno-[2.3-d]pyrimidin-4-one]	good to excellent activity	good to excellent activity	good activity	–
CCCn1c(OCC2CC2(F)F)nc2sc(Cl)cc2c1=O (centres unmarked) [Compound 3.51]	good to excellent activity	good to excellent activity	good activity	–
CCCn1c(OCC2CC2(F)F)nc2sc(Br)cc2c1=O (centres unmarked) [Compound 3.52]	good to excellent activity	good to excellent activity	good activity	–
CCCn1c(OCC2(C)CC2)nc2c(Br)csc2c1=O [Compound 4.8]	good to excellent activity	good to excellent activity	good activity	–
CCCn1c(OCC2CC2C)nc2c(Br)csc2c1=O (centres unmarked) [Compound 4.23]	good to excellent activity	good to excellent activity	good activity	–
